Assays:
[1] = test system: A549-ACE2 infected with SARS-CoV-2; experiment: SARS-CoV-2 infection rate relative to DMSO; higher = more infection; settings: 24 h
[2] = test system: A549-ACE2 infected with SARS-CoV-2; experiment: cell count relative to DMSO; higher = less toxic; settings: 24 h
Calu-3 [3] = experiment: cell viability relative to DMSO; higher = less toxic; settings: 72 h
Vero E6 [4] = experiment: as above; settings: 72 h
HepG2 [5] = experiment: as above; settings: 72 h
Caco-2 [6] = experiment: as above; settings: 72 h
U2OS [7] = experiment: as above; settings: 72 h
Calu-3 [8] = experiment: relative viability EC50 (midpoint between 100% and the lowest measured viability); higher = less toxic; settings: 72 h
Vero E6 [9] = experiment: as above; settings: 72 h
HepG2 [10] = experiment: as above; settings: 72 h
U2OS [11] = experiment: as above; settings: 72 h
[12] = test system: A549-ACE2 infected with SARS-CoV-2; experiment: morphology score (similarity to uninfected cells); higher = more like uninfected cells; settings: 24 h
Calu-3 [13] = experiment: drug sensitivity score (DSS) for viability; higher = more toxic; extreme values may be limits of the assay; settings: 72 h
Vero E6 [14] = experiment: as above; settings: 72 h
HepG2 [15] = experiment: as above; settings: 72 h
Caco-2 [16] = experiment: as above; settings: 72 h
U2OS [17] = experiment: as above; settings: 72 h
A549-ACE2 = experiment: drug-induced phospholipidosis relative to tamoxifen; higher = more phospholipidosis
Caco-2 [18] = experiment: relative viability EC50 (midpoint between 100% and the lowest measured viability); higher = less toxic; settings: 72 h

CCCCCC(=O)O[C@]1(C(C)=O)CC[C@H]2[C@@H]3CCC4=CC(=O)CC[C@]4(C)[C@H]3CC[C@@]21C [17-hydroxyprogesterone-caproate]
Settings | SARS-CoV-2 infection rate, [1] [%] | cell count, [2] [%] | cell viability, Caco-2 [6] [%] | cell viability, Calu-3 [3] [%] | cell viability, HepG2 [5] [%] | cell viability, U2OS [7] [%] | cell viability, Vero E6 [4] [%] | morphology score, [12]
1 nM | – | – | 92.7 | 86.9 | 97.1 | 98.1 | 97.8 | –
10 nM | – | – | 95.9 | 99 | 96.6 | 95.7 | 103 | –
100 nM | – | – | 107 | 100 | 98 | 99.7 | 95.1 | –
0.3 µM | 95 | 103 | – | – | – | – | – | 0.25
1000 nM | – | – | 92.8 | 88.6 | 97.6 | 99.4 | 95.4 | –
3 µM | 88 | 104 | – | – | – | – | – | 0.34
10 µM | 81 | 106 | – | – | – | – | – | 0.47
10000 nM | – | – | 64.7 | 99.5 | 94.8 | 95.9 | 103 | –
30 µM | 34 | 104 | – | – | – | – | – | 0.79

Settings | drug sensitivity score | relative viability EC50 [µM]
Caco-2 [16] | 2.8 | –
Calu-3 [8] | – | > 10
Calu-3 [13] | 0 | –
HepG2 [10] | – | > 10
HepG2 [15] | 0 | –
U2OS [11] | – | > 10
U2OS [17] | 0 | –
Vero E6 [9] | – | > 10
Vero E6 [14] | 0 | –

drug-induced phospholipidosis [%], A549-ACE2
Settings | 0.3 µM | 0.833333 µM | 3.33333 µM | 6.66667 µM | 10 µM | 30 µM
24 h | 6.66 | 6.09 | 4.63 | 8.81 | 8.05 | 21.5
48 h | 5.77 | 4.75 | 0.98 | 3.88 | 3.43 | 9.55
72 h | 6.76 | 2.38 | 2.24 | 4.3 | 4.77 | 13.6

C=CC(=O)N1CCN(C(=O)CNc2cc(I)c(Cl)cc2O)CC1 [K-Ras(G12C)-inhibitor-12]
Settings | SARS-CoV-2 infection rate, [1] [%] | cell count, [2] [%] | cell viability, Caco-2 [6] [%] | cell viability, Calu-3 [3] [%] | cell viability, HepG2 [5] [%] | cell viability, U2OS [7] [%] | cell viability, Vero E6 [4] [%] | morphology score, [12]
1 nM | – | – | 102 | 112 | 95.2 | 108 | 101 | –
10 nM | – | – | 96.3 | 103 | 98.1 | 96.9 | 107 | –
100 nM | – | – | 106 | 104 | 88.2 | 104 | 90.2 | –
0.3 µM | 74 | 109 | – | – | – | – | – | 0.34
1000 nM | – | – | 88.3 | 75.5 | 72.8 | 96.6 | 54.1 | –
3 µM | 86 | 93 | – | – | – | – | – | 0.05
10 µM | 76 | 93 | – | – | – | – | – | 0.03
10000 nM | – | – | 76.6 | 79.5 | 42.8 | 93.5 | 40.1 | –
30 µM | 77 | 85 | – | – | – | – | – | -0.03

Settings | drug sensitivity score | relative viability EC50 [µM]
Caco-2 [16] | 2.2 | –
Caco-2 [18] | – | > 10
Calu-3 [8] | – | > 10
Calu-3 [13] | 3.5 | –
HepG2 [10] | – | 0.805
HepG2 [15] | 6.5 | –
U2OS [11] | – | > 10
U2OS [17] | 0 | –
Vero E6 [9] | – | 0.388
Vero E6 [14] | 9.6 | –

drug-induced phospholipidosis [%], A549-ACE2
Settings | 0.3 µM | 0.833333 µM | 3.33333 µM | 6.66667 µM | 10 µM | 30 µM
24 h | 8.49 | 7.52 | 10 | 12 | 13.7 | 24
48 h | 5.08 | 2.66 | 7.02 | 10.2 | 11.5 | 19.6
72 h | 5.88 | 1.74 | 5.37 | 8.06 | 13.5 | 16

CC[C@@]1([C@H]2O[C@H]([C@H]3O[C@@](O)(CO)[C@H](C)C[C@@H]3C)C[C@H]2C)CC[C@H]([C@@]2(C)CC[C@]3(C[C@H](O)[C@@H](C)[C@@H]([C@H](C)[C@H](OC)[C@@H](C)C(=O)O)O3)O2)O1 [MONENSIN SODIUM]
Settings | SARS-CoV-2 infection rate, [1] [%] | cell count, [2] [%] | cell viability, Caco-2 [6] [%] | cell viability, Calu-3 [3] [%] | cell viability, HepG2 [5] [%] | cell viability, U2OS [7] [%] | cell viability, Vero E6 [4] [%] | morphology score, [12]
1 nM | – | – | 93.9 | 99 | 94.6 | 99.5 | 96.7 | –
10 nM | – | – | 93.4 | 93.1 | 107 | 96.2 | 103 | –
100 nM | – | – | 109 | 89.9 | 91.8 | 99.3 | 95.6 | –
0.3 µM | 50 | 114 | – | – | – | – | – | 0.72
1000 nM | – | – | 56.9 | 68 | 82.9 | 97.1 | 103 | –
3 µM | 61 | 108 | – | – | – | – | – | 0.85
10 µM | 25 | 115 | – | – | – | – | – | 0.83
10000 nM | – | – | 20.9 | 36.9 | 26.2 | 35.4 | 102 | –
30 µM | 17 | 119 | – | – | – | – | – | 0.82

Settings | drug sensitivity score | relative viability EC50 [µM]
Caco-2 [16] | 9.7 | –
Caco-2 [18] | – | 0.934
Calu-3 [8] | – | 0.789
Calu-3 [13] | 7.5 | –
HepG2 [10] | – | 1.61
HepG2 [15] | 6.8 | –
U2OS [11] | – | 2.83
U2OS [17] | 3.9 | –
Vero E6 [9] | – | > 10
Vero E6 [14] | 0 | –

drug-induced phospholipidosis [%], A549-ACE2
Settings | 0.3 µM | 0.833333 µM | 3.33333 µM | 6.66667 µM | 10 µM | 30 µM
24 h | -1.18 | -1.15 | 0.94 | 1.15 | -4.98 | -12.7
48 h | 5.4 | 3.73 | 5.09 | -3.84 | -2.31 | -14.7
72 h | 6.27 | 4.79 | 7.82 | – | – | –

CN1C2C=C(c3sccc3Br)CC1CC2 (centres undefined) [NS-3861]
Settings | SARS-CoV-2 infection rate, [1] [%] | cell count, [2] [%] | cell viability, Caco-2 [6] [%] | cell viability, HepG2 [5] [%] | cell viability, U2OS [7] [%] | cell viability, Vero E6 [4] [%] | morphology score, [12]
1 nM | – | – | 101 | 107 | 97.6 | 98.9 | –
10 nM | – | – | 103 | 107 | 101 | 99.5 | –
100 nM | – | – | 92.4 | 97.2 | 95.3 | 99 | –
0.3 µM | 97 | 99 | – | – | – | – | 0
1000 nM | – | – | 106 | 89.2 | 100 | 96.7 | –
3 µM | 83 | 109 | – | – | – | – | 0.45
10 µM | 75 | 104 | – | – | – | – | 0.4
10000 nM | – | – | 101 | 92.5 | 94.6 | 97.2 | –
30 µM | 41 | 113 | – | – | – | – | 0.77

Settings | drug sensitivity score | relative viability EC50 [µM]
Caco-2 [16] | 0 | –
Caco-2 [18] | – | > 10
HepG2 [10] | – | > 10
HepG2 [15] | 0.3 | –
U2OS [11] | – | > 10
U2OS [17] | 0 | –
Vero E6 [9] | – | > 10
Vero E6 [14] | 0 | –

drug-induced phospholipidosis [%], A549-ACE2
Settings | 0.3 µM | 0.833333 µM | 3.33333 µM | 6.66667 µM | 10 µM | 30 µM
24 h | 1.11 | -3.88 | -0.69 | -1.21 | 2.15 | 14.7
48 h | 2.52 | -3.07 | -1.18 | -0.52 | -0.04 | 12.8
72 h | 4.83 | -2.54 | -0.115 | 0.151 | 0.487 | 12.9
